Reference: US20130171079A1, “COMPOSITION TO STABILISE KOJIC ACID” (Pangaea Laboratories Ltd., priority 2011, published 2013)

Assays:
[1] = background statement; accelerated by heat, UV or low pH; cited from earlier work
[2] = Colour-change stability test of 2% kojic acid in an aqueous cosmetic base with sodium metabisulphite and/or propyl gallate; assay type: physicochemical; settings: over 42 days, room temperature, 2% kojic acid aqueous base
Experimental: A test was conducted to measure the effect of sodium metabisulphite and propyl gallate on the stability of kojic acid in aqueous cosmetic or pharmaceutical compositions. In this regard kojic acid is known to change colour from a slight yellow to very dark yellow as it degrades, and so colour change was used as the indicator of stability vs. degradation. All samples contained 2% kojic acid in an aqueous cosmetic base. [table] Each sample was photographed and optically assessed against a 20-stage yellow colour spectrum, where 1 was a very pale straw yellow, and 20 was a dark yellow. Photographs were taken on day 1, day 7 and day 42. In between photographs, the samples were stored together at normal room temperature.

[3] = Earlier experiments on stability (discolouration) of kojic acid solutions with stabilisers; assay type: physicochemical; settings: two month period
Description: One useful, if obvious, solution to the problem would be to add a preservative such as sodium metabisulphite. Sodium metabisulphite is in a class of preservatives that release sulphur dioxide. […] However this option is not enough for two reasons. Firstly, two months is not sufficient shelf life for a cosmetic or pharmaceutical composition. Secondly, a preferable format for a skin lightening composition would also include one or more other lightening ingredients, such as lactic acid, niacinamide and ascorbic acid. The net effect of these ingredients may lower the pH, and accelerate the degradation of kojic acid. This has been shown in experiments to overcome the stabilising effect of sodium metabisulphite during a two month period.
It was then hypothesised that reducing agents or antioxidants may help by preventing free radical formation. Various antioxidants were tested without noticeable effect.
Researchers expected the combination to deliver better results that propyl gallate, but worse results than sodium metabisulphite alone. Instead the kojic acid solution remained completely clear for more than two months. The result is certainly not additive and therefore must be due to some previously unknown synergy between sodium metabisulphite and propyl gallate.

Row | effect of the additive on stability of kojic acid (in words) [2] | SMILES | stability of kojic acid in solution (in words) [1] | stabilisation / discolouration of kojic acid solution (in words) [3]
1 |  | O=c1cc(CO)occ1O [kojic acid] | degrades within weeks in solution | 
2 | worsened stability slightly | CCCOC(=O)c1cc(O)c(O)c(O)c1 [propyl gallate] |  | 
3 | improved stability slightly | O=S([O-])S(=O)(=O)[O-].[Na+].[Na+] [sodium metabisulphite] |  | keeping discolouration to a low level for up to two months
